Test results: the NIST ThermoML archive (doi:10.1016/j.jct.2012.06.003)
Numbers after ± are expanded uncertainties.

What was measured:
[1] = for Normal melting temperature: Crystal
[2] = Molar enthalpy of transition or fusion; details: DSC

Triple point temperature ([1]; Crystal 2, DTA): 310.3 ± 0.4 K
Normal melting temperature ([1]; DTA): 64.61 ± 0.39 °C
Normal melting temperature ([1]; Visual method): 63 ± 0.1 °C
Molar enthalpy of transition or fusion ([2]; Crystal 2): 0.467 ± 0.0526 kcal/mol
Molar enthalpy of transition or fusion ([2]; Crystal): 10 ± 0.217 kcal/mol
Structure (SMILES): CCCCCC[n+]1cccc(C)c1.O=S(=O)([O-])C(F)(F)F [1-hexyl-3-methylpyridinium trifluoromethanesulfonate]
